According to patent US20070128217A1 (priority 2003, published 2007):

Tests used:
[1] = test system: recombinant human anti-SARS-CoV antibody 03-018; format: binding; set-up: Binding of antibody 03-018 to linear peptides of the N protein of SARS-CoV Urbani / Binding of antibody 03-018 to looped/cyclic peptides of the N protein of SARS-CoV Urbani: unit not given here
[2] = test system: control sera (pooled serum of ten healthy LUMC hospital workers; commercial negative donor pooled serum from the Dutch bloodbank); format: binding, human; set-up: Binding of Control serum LUMC to linear peptides / Binding of Control serum Blood-bank to linear peptides / Binding of Control serum LUMC to looped peptides / Binding of Control Serum Blood-Bank to Looped peptides / Binding of Control serum LUMC to linear peptides of the protein M of SARS-CoV Urbani / Binding of Control serum Blood-bank to linear peptides of the protein M of SARS-CoV Urbani / Binding of Control serum LUMC to looped peptides of the protein M of SARS-CoV Urbani / Binding of Control Serum Blood-Bank to Looped peptides of the protein M of SARS-CoV Urbani: unit not given here
[3] = test system: antibodies in sera from SARS patients (sera 1a, 1b, 2, 6, 37, 62, London, SARS-yellow, SARS-green); format: binding, human; set-up: Binding of serum 6 to linear peptides of protein X1 of SARS-CoV Urbani / Binding of serum 37 to linear peptides of protein X1 of SARS-CoV Urbani / Binding of serum 6 to looped/cyclic peptide (PEPSCAN-ELISA) / Binding of serum 37 to looped/cyclic peptide (PEPSCAN-ELISA) / Binding of serum 37 to looped/cyclic peptides of protein X1 of SARS-CoV Urbani / Binding of serum 6 to linear peptides of protein X2 / Binding of serum 37 to linear peptides of protein X2 / Binding of serum 37 to looped/cyclic peptides of protein X2 of SARS-CoV Urbani / Binding of serum 6 to linear peptides of protein M of SARS-CoV Urbani / Binding of serum 37 to linear peptides of protein M of SARS-CoV Urbani / Binding of serum 6 to looped/cyclic peptides of protein M of SARS-CoV Urbani / Binding of serum 37 to looped/cyclic peptides of protein M of SARS-CoV Urbani / Binding of serum 6 to linear peptides of protein X3 of SARS-CoV Urbani / Binding of serum 37 to linear peptides of protein X3 of SARS-CoV Urbani / Binding of serum 37 to looped/cyclic peptides of protein X3 of SARS-CoV Urbani / Binding of serum 6 to linear peptides of protein X4 of SARS-CoV Urbani / Binding of serum 37 to linear peptides of protein X4 of SARS-CoV Urbani / Binding of serum 37 to looped/cyclic peptides of protein X4 of SARS-CoV Urbani / Binding of serum 6 to linear peptides of protein X5 of SARS-CoV Urbani / Binding of serum 37 to linear peptides of protein X5 of SARS-CoV Urbani / Binding of serum 37 to looped/cyclic peptides of protein X5 of SARS-CoV Urbani / Binding of serum 6 to linear peptides of protein N of SARS-CoV Urbani / Binding of serum 37 to linear peptides of protein N of SARS-CoV Urbani / Binding of serum 6 to linear peptide (PEPSCAN-ELISA) / Binding of serum 1a to looped/cyclic peptides of protein N of SARS-CoV Urbani / Binding of serum 1b to looped/cyclic peptides of protein N of SARS-CoV Urbani / Binding of serum 2 to looped/cyclic peptides of protein N of SARS-CoV Urbani / Binding of serum 6 to looped/cyclic peptides of protein N of SARS-CoV Urbani / Binding of serum 37 to looped/cyclic peptides of protein N of SARS-CoV Urbani / Binding of serum 62 to looped/cyclic peptides of protein N of SARS-CoV Urbani / Binding of serum London to looped/cyclic peptides of protein N of SARS-CoV Urbani / Binding of serum SARS-green to looped/cyclic peptides of protein N of SARS-CoV Urbani: unit not given here
[4] = test system: rabbit serum obtained by immunizing a rabbit with the SARS-CoV strain Frankfurt 1; format: binding; set-up: Binding of a rabbit serum to linear peptides / Binding of a rabbit serum to looped peptides / Rabbit serum linear peptides / Rabbit serum looped peptides / Binding of a rabbit serum to linear peptides of protein N of SARS-CoV Urbani (Rabbit serum linear peptides) / Binding of a rabbit serum to looped/cyclic peptides of protein N of SARS-CoV Urbani (Rabbit serum looped peptides): unit not given here

Row | Sequence | Binding of antibody 03-018 to linear peptides of the N protein of SARS-CoV Urbani [1] | Binding of antibody 03-018 to looped/cyclic peptides of the N protein of SARS-CoV Urbani [1] | Binding of serum 1a to linear peptides of protein N of SARS-CoV Urbani [3] | Binding of serum 1a to looped/cyclic peptides of protein N of SARS-CoV Urbani [3] | Binding of serum 1b to linear peptides of protein N of SARS-CoV Urbani [3] | Binding of serum 1b to looped/cyclic peptides of protein N of SARS-CoV Urbani [3] | Binding of serum 2 to linear peptides of protein N of SARS-CoV Urbani [3] | Binding of serum 2 to looped/cyclic peptides of protein N of SARS-CoV Urbani [3] | Binding of serum 6 to linear peptides of protein N of SARS-CoV Urbani [3] | Binding of serum 6 to looped/cyclic peptides of protein N of SARS-CoV Urbani [3] | Binding of serum 37 to linear peptides of protein N of SARS-CoV Urbani [3] | Binding of serum 37 to looped/cyclic peptides of protein N of SARS-CoV Urbani [3] | Binding of serum 62 to linear peptides of protein N of SARS-CoV Urbani [3] | Binding of serum 62 to looped/cyclic peptides of protein N of SARS-CoV Urbani [3] | Binding of serum London to linear peptides of protein N of SARS-CoV Urbani [3] | Binding of serum London to looped/cyclic peptides of protein N of SARS-CoV Urbani [3] | Binding of serum SARS-green to linear peptides of protein N of SARS-CoV Urbani [3] | Binding of serum SARS-green to looped/cyclic peptides of protein N of SARS-CoV Urbani [3] | Binding of serum SARS-yellow to linear peptides of protein N of SARS-CoV Urbani [3] | Binding of serum SARS-yellow to looped/cyclic peptides of protein N of SARS-CoV Urbani [3] | also measured
1 | QGTDYKHWPQIAQFA | 0.1 | 0.2 | 0.3 | 0.4 | 0.2 | 0.3 | 0.2 | 0.4 | 0.2 | 0.3 | 0.8 | 0.6 | 0.8 | 0.6 | 0.7 | 0.5 | 0.2 | 0.3 | 0.7 | 0.7 | Control Serum Blood-Bank Looped peptides [2]: 0.6; Control serum Blood-bank linear peptides [2]: 0.8; Control serum LUMC linear peptides [2]: 0.6; Control serum LUMC looped peptides [2]: 0.7; Binding of a rabbit serum to linear peptides of protein N of SARS-CoV Urbani (Rabbit serum linear peptides) [4]: 0.2; Binding of a rabbit serum to looped/cyclic peptides of protein N of SARS-CoV Urbani (Rabbit serum looped peptides) [4]: 0.3
2 | QIGYYRRATRRVRGG | 0.1 | 0.2 | 0.3 | 0.3 | 0.1 | 0.2 | 0.2 | 0.4 | 0.2 | 0.3 | 0.6 | 0.7 | 0.6 | 0.6 | 0.5 | 0.4 | 0.2 | 0.4 | 0.6 | 0.6 | Binding of Control Serum Blood-Bank to Looped peptides [2]: 0.8; Binding of Control serum Blood-bank to linear peptides [2]: 0.8; Binding of Control serum LUMC to linear peptides [2]: 0.6; Binding of Control serum LUMC to looped peptides [2]: 0.7; Recognition of the peptide by the rabbit serum [4]: recognized
3 | QLQNSMSGASADSTQ | 0.1 | 0.2 | 0.2 | 0.3 | 0.1 | 0.1 | 0.2 | 0.4 | 0.1 | 0.1 | 0.7 | 0.4 | 0.5 | 0.1 | 0.6 | 0.3 | 0.3 | 0.1 | 0.6 | 0.1 | Control Serum Blood-Bank Looped peptides [2]: 0.5; Control serum Blood-bank linear peptides [2]: 0.8; Control serum LUMC linear peptides [2]: 0.6; Control serum LUMC looped peptides [2]: 0.4; Binding of a rabbit serum to linear peptides of protein N of SARS-CoV Urbani (Rabbit serum linear peptides) [4]: 0.7; Binding of a rabbit serum to looped/cyclic peptides of protein N of SARS-CoV Urbani (Rabbit serum looped peptides) [4]: 0.5
